The source of these data is patent publication US11123355B2, “Antiviral benzyl-amine phosphodiamide compounds” (Merck Sharp & Dohme Corp., priority 2016, dated 2021).

As a reminder, the IC50 is the concentration needed to halve the response being measured.

The nature of data set [1]: Prodrug Stability Assay in Bio-Relevant Media (FaSSIF with Pancreatin). In kind it is in vitro ADME. As to conditions: 0.5 mg/mL Pancreatin in FaSSIF, 37° C.; HPLC peak area of prodrug at 5 h divided by that at 0 h. The protocol: Prodrug Stability Assay in Bio-Relevant Media
The following assay was employed to evaluate the stability of the prodrugs in simulated gastrointestinal tract conditions. Preparation of fasted state simulated intestinal fluid (FaSSIF) using Phares SIF Powder was carried out according to protocols from Phare Drug Delivery AG (Baselland, Switzerland). For sample preparation, 10 μL stock solutions (10 mM) of prodrug substance in DMSO was added to 990 μL of 0.5 mg/mL Pancreatin solution (Fisher CAS #8049-47-6) in FaSSIF. Two samples were prepared for each compound. If the sample was a clear solution, it was directly analyzed by HPLC. If the sample was not clear, the sample was diluted with 100% MeCN, maintained at 37° C. and observed 5 h later. If the sample was clear, HPLC analysis was directly performed. If the sample was still not clear, the sample was diluted with 100% ACN and assayed by HPLC. All the samples were vortexed for 3 min and observed before injection. For the diluted samples, the area is multiplied by a dilution factor when the data is analyzed. The analysis was carried out with an Agilent 1100 series HPLC with autosampler. The column was a Poroshell 120 EC-C18, 4.6×50 mm, 2.7 μm. The flow rate was 1.8 mL/min, and the injection volume was 5 or 10 μL. UV detection was in the range 210-400 nm. The mobile phase consisted of solvent A (water plus 10 mM tetrabutylammonium bromide) and solvent B (acetonitrile) with a gradient of: 90% solvent A at 0 min, changing to 95% solvent B over 6 min, maintaining for 1.5 min, then reverting to 90% solvent A over 1.6 min. The HPLC peak area of the prodrug at 5 h was divided by the HPLC peak area of the prodrug at 0 h, to generate the % claimed parent ratio, which is summarized in Table 2 for gastrointestinal (GI) Tract stability.

Another data set relates to HIV-1 (H9/IIB strain). Briefly: Multiple Round HIV-1 Infection Assay (Viking Assay) in MT4-GFP cells. Format: cell-based. As to conditions: inhibition of reproductive ratio R0. A digest of the protocol: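 Inhibition of the reproductive ratio R0, derived from the rise in GFP-positive cells between ~48 h and ~72 h post-infection, was fitted by 4-parameter regression to give IC50. Cells infected at MOI ~0.01 were exposed to compound (typically 8.4 μM–0.42 nM final) in 10% or 50% normal human serum.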

[2] abbreviates: MT4-GFP cells infected with HIV-1, 10% normal human serum, read-out: Viking, IC50 (10% NHS).
Setting [3] is: MT4-GFP cells infected with HIV-1, 50% normal human serum, read-out: Viking, IC50 (50% NHS).
The mark [4] stands for this setting: Human immunodeficiency virus 1, MT4-GFP cells infected with HIV-1, 10% normal human serum, read-out: Viking, IC50 (10% NHS).
Where [5] appears, read: Human immunodeficiency virus 1, MT4-GFP cells infected with HIV-1, 50% normal human serum, read-out: Viking, IC50 (50% NHS).

Read-outs that look alike come from different tables or passages of the source.

As to `CCCOC(=O)C(C)(C)N[P@@](=O)(CO[C@H](C)Cn1cnc2c(N)ncnc21)NCc1ccc(OC(F)(F)F)cc1` [Example 7A, propyl 2-(((R)-((((R)-1-(6-amino-9H-purin-9-yl)propan-2-yl)oxy)methyl)((4-(trifluoromethoxy)benzyl)amino)phos-phoryl)amino)-2-methylpropanoate and propyl 2-(((S)-((((R)-1-(6-amino-9H-purin-9-yl)propan-2-yl)oxy)methyl)((4-(trifluoromethoxy)benzyl)amino)phos-phoryl)amino)-2-methylpropanoate], in data set [1], the “GI Tract stability (%)” value came out at 96.0%. Besides, the values for the IC50 with HIV-1 (H9/IIB strain) (setting [2]) and with HIV-1 (H9/IIB strain) (setting [3]) were 4.5 nM and 27 nM, respectively.
As to `CCCOC(=O)C(C)(C)NP(=O)(CO[C@H](C)Cn1cnc2c(N)ncnc21)N[C@H](C)c1ccc(C(F)(F)F)cc1` (stereo partly drawn) [Example 12B, propyl 2-(((R)-((((R)-1-(6-amino-9H-purin-9-yl)propan-2-yl)oxy)methyl)(((R)-1-(4-(trifluoromethyl)phenyl)ethyl)amino)phos-phoryl)amino)-2-methylpropanoate and propyl 2-(((S)-((((R)-1-(6-amino-9H-purin-9-yl)propan-2-yl)oxy)methyl)(((R)-1-(4-(trifluoromethyl)phenyl)ethyl)amino)phos-phoryl)amino)-2-methylpropanoate], the “GI Tract stability (%)” value in data set [1] came to 99.1%. Further, the half-maximal inhibitory concentration (IC50) is 2.2 nM in the data set on HIV-1 (H9/IIB strain) (setting [2]) and 11 nM in the data set with HIV-1 (H9/IIB strain) (setting [3]).
Taken in the same sequence, the figures for `CCCOC(=O)C(C)(C)NP(=O)(CO[C@H](C)Cn1cnc2c(N)ncnc21)N[C@H](c1cccc(OC)c1)C(F)(F)F` (stereo partly drawn) [Example 25A, propyl 2-(((R)-((((R)-1-(6-amino-9H-purin-9-yl)propan-2-yl)oxy)methyl)(((R)-2,2,2-trifluoro-1-(3-methoxyphenyl)ethyl)amino)phosphoryl)a-mino)-2-methylpropanoate and propyl 2-(((S)-((((R)-1-(6-amino-9H-purin-9-yl)propan-2-yl)oxy)methyl)(((R)-2,2,2-trifluoro-1-(3-methoxyphenyl)ethyl)amino)phosphoryl)a-mino)-2-methylpropanoate] were 70.3%, 4.6 nM and 54 nM.
Turning to `CC(C)OC(=O)C(C)(C)N[P@@](=O)(CO[C@H](C)Cn1cnc2c(N)ncnc21)NC1(c2ccc(Cl)cc2)CC1` [Example 37B, isopropyl 2-(((R)-((((R)-1-(6-amino-9H-purin-9-yl)propan-2-yl)oxy)methyl)((1-(4-chlorophenyl)cyclopropyl)amino)phos-phoryl)amino)-2-methylpropanoate and isopropyl 2-(((S)-((((R)-1-(6-amino-9H-purin-9-yl)propan-2-yl)oxy)methyl)((1-(4-chlorophenyl)cyclopropyl)amino)phos-phoryl)amino)-2-methylpropanoate], the “GI Tract stability (%)” value in data set [1] worked out at 21.1%. The figures for the IC50 in the data set with HIV-1 (H9/IIB strain) (setting [2]) and in the data set with HIV-1 (H9/IIB strain) (setting [3]) were 5.1 nM and 30 nM, respectively.
For the molecule `CCCOC(=O)C(C)(C)N[P@@](=O)(CO[C@H](C)Cn1cnc2c(N)ncnc21)N[C@@H](C)c1cccc(F)c1` [Example 10B, propyl 2-(((R)-((((R)-1-(6-amino-9H-purin-9-yl)propan-2-yl)oxy)methyl)(((S)-1-(3-fluorophenyl)ethyl)amino)phosphoryl)ami-no)-2-methylpropanoate and propyl 2-(((S)-((((R)-1-(6-amino-9H-purin-9-yl)propan-2-yl)oxy)methyl)(((S)-1-(3-fluorophenyl)ethyl)amino)phosphoryl)ami-no)-2-methylpropanoate], the IC50 in the data set with HIV-1 (H9/IIB strain) (setting [2]) is 99 nM; with HIV-1 (H9/IIB strain) (setting [3]), 490 nM.
As for `CCCOC(=O)C(C)(C)N[P@@](=O)(CO[C@H](C)Cn1cnc2c(N)ncnc21)N[C@H](C)c1ccc(OC)cc1` [Example 15A, propyl 2-(((R)-((((R)-1-(6-amino-9H-purin-9-yl)propan-2-yl)oxy)methyl)(((R)-1-(4-methoxyphenyl)ethyl)amino)phosphoryl)a-mino)-2-methylpropanoate and propyl 2-(((S)-((((R)-1-(6-amino-9H-purin-9-yl)propan-2-yl)oxy)methyl)(((R)-1-(4-methoxyphenyl)ethyl)amino)phosphoryl)a-mino)-2-methylpropanoate], the IC50 with HIV-1 (H9/IIB strain) (setting [2]) amounted to 74 nM; in the data set with HIV-1 (H9/IIB strain) (setting [3]) it was 410 nM.
Take `CCCOC(=O)C(C)(C)NP(=O)(CO[C@H](C)Cn1cnc2c(N)ncnc21)N[C@H](C)c1ccc(OC(F)(F)F)cc1` (stereo partly drawn) [Example 3A]: the IC50 with HIV-1 (H9/IIB strain) (setting [4]) was determined as 80 nM; in the data set on HIV-1 (H9/IIB strain) (setting [5]), 780 nM.
In the case of `CCCOC(=O)C(C)(C)NP(=O)(CO[C@H](C)Cn1cnc2c(N)ncnc21)N[C@@H](C)c1ccc(OC(F)(F)F)cc1` (stereo partly drawn) [Example 19B, propyl 2-(((R)-((((R)-1-(6-amino-9H-purin-9-yl)propan-2-yl)oxy)methyl)(((S)-1-(4-(trifluoromethoxy)phenyl)ethyl)amino)phos-phoryl)amino)-2-methylpropanoate and propyl 2-(((S)-((((R)-1-(6-amino-9H-purin-9-yl)propan-2-yl)oxy)methyl)(((S)-1-(4-(trifluoromethoxy)phenyl)ethyl)amino)phos-phoryl)amino)-2-methylpropanoate], the values for the IC50 with HIV-1 (H9/IIB strain) (setting [2]) and with HIV-1 (H9/IIB strain) (setting [3]) were 84 nM and 360 nM, respectively.
As for “propyl 2-(((R)-((((R)-1-(6-amino-9H-purin- 9-yl)propan-2-yl)oxy)methyl)(((R)-1-(p- tolyl)ethyl)amino)phosphoryl)amino)-2- methylpropanoate and propyl 2-(((S)-((((R)-1-(6-amino-9H-purin- 9-yl)propan-2-yl)oxy)methyl)(((R)-1-(p- tolyl)ethyl)amino)phosphoryl)amino)-2- methylpropanoate [Example 16B]”, the IC50 stood at 4.6 nM with HIV-1 (H9/IIB strain) (setting [2]) and 27 nM with HIV-1 (H9/IIB strain) (setting [3]).
Taken in the same sequence, the figures for “propyl 2-(((R)-((((R)-1-(6-amino-9H-purin- 9-yl)propan-2-yl)oxy)methyl)((4- isopropylbenzyl)amino)phosphoryl)amino)- 2-methylpropanoate and propyl 2-(((S)-((((R)-1-(6-amino-9H-purin- 9-yl)propan-2-yl)oxy)methyl)((4- isopropylbenzyl)amino)phosphoryl)amino)- 2-methylpropanoate [Example 5B]” were 48 nM and 240 nM.
For the molecule `CCCOC(=O)C(C)(C)NP(=O)(CO[C@H](C)Cn1cnc2c(N)ncnc21)N(C)[C@H](C)c1ccc(Cl)cc1` (single isomer, unassigned) [Example 2B], the IC50 with HIV-1 (H9/IIB strain) (setting [4]) worked out at 2 nM; in the data set with HIV-1 (H9/IIB strain) (setting [5]) it was 9.6 nM.
As to “propyl 2-(((R)-((((R)-1-(6-amino-9H-purin- 9-yl)propan-2-yl)oxy)methyl)((4- cyanobenzyl)amino)phosphoryl)amino)-2- methylpropanoate and propyl 2-(((S)-((((R)-1-(6-amino-9H-purin- 9-yl)propan-2-yl)oxy)methyl)((4- cyanobenzyl)amino)phosphoryl)amino)-2- methylpropanoate [Example 6A]”, the IC50 with HIV-1 (H9/IIB strain) (setting [2]) worked out at 70 nM; in the data set on HIV-1 (H9/IIB strain) (setting [3]), 660 nM.
On to `CCCOC(=O)C(C)(C)N[P@@](=O)(CO[C@H](C)Cn1cnc2c(N)ncnc21)N[C@@H](c1ccc(C#N)cc1)C(F)(F)F.CCCOC(=O)C(C)(C)N[P@](=O)(CO[C@H](C)Cn1cnc2c(N)ncnc21)N[C@@H](c1ccc(C#N)cc1)C(F)(F)F` (mixture of isomers) [Example 24B, propyl 2-(((R)-((((R)-1-(6-amino-9H-purin-9-yl)propan-2-yl)oxy)methyl)(((S)-1-(4-cyanophenyl)-2,2,2-trifluoroethyl)amino)phosphoryl)amino)-2-methylpropanoate and propyl 2-(((S)-((((R)-1-(6-amino-9H-purin-9-yl)propan-2-yl)oxy)methyl)(((S)-1-(4-cyanophenyl)-2,2,2-trifluoroethyl)amino)phosphoryl)amino)-2-methylpropanoate], for which the IC50 with HIV-1 (H9/IIB strain) (setting [2]) amounted to 22 nM; in the data set with HIV-1 (H9/IIB strain) (setting [3]), 170 nM.
